Experimental data from EP1763350B1, “NICOTINAMIDE DERIVATIVES AND THEIR USE AS THERAPEUTIC AGENTS” (Xenon Pharmaceuticals Inc., priority 2004, dated 2006).
Several values for one entry are separate records, joined by “and”; a condition that tells them apart may be missing. Equal values may be shown once.

Biological target: T1, SCD (Mus musculus, UniProt P13516)
T1 construct: from tissue; host or cells: mouse liver microsomes (induced for SCD1 expression)
T1 sequence (P13516 1-355): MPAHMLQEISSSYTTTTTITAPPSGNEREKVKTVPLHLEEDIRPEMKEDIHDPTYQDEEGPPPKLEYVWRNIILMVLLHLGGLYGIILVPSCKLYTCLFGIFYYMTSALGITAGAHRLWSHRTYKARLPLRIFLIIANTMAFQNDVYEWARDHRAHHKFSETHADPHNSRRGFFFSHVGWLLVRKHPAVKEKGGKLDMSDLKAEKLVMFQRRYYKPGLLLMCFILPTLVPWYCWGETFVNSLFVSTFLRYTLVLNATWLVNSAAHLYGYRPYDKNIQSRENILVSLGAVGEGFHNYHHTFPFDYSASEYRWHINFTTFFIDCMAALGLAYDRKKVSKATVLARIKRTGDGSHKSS
Test: SCD microsomal assay (tritiated stearoyl-CoA, release of labeled water), mouse liver microsomes
Type: biochemical
Conditions: % remaining SCD activity at 10 µM of test compound, 100 µg, preincubation 15 minutes, desaturation period 15 minutes at ambient temperature
Excerpt: The identification of compounds of the invention as SCD inhibitors was readily accomplished using the SCD enzyme and microsomal assay procedure described in Brownlie et al, supra.
The identification of compounds of the invention as SCD inhibitors was readily accomplished using the SCD enzymes and microsomal assay procedure described in Brownlie et al, PCT published patent application, WO 01/62954. Briefly, mouse or human liver microsomes (induced for SCD1 expression and containing cytochrome b5 and cytochrome b5 reductase) and NADH are suspended in buffer with a compound of the invention, and reaction is initiated by addition of 0.025 mM tritiated stearoyl-CoA. This ligand is tritiated at the C9 and C10 position only. The reaction is allowed to proceed for between 5 and 20 minutes at ambient temperature, whereupon it is halted by addition of acid. Activated charcoal is then added, mixed, and centrifuged to separate labeled substrate from labeled water. An aliquot of supernatant is than tested for radioactivity using liquid scintillation counting. This is taken as a measure of delta-9 desaturase activity.
Compounds were tested in mouse liver microsomes, 100 µg, preincubation with the test compound for 15 minutes at ambient temperature, a desaturation period for 15 minutes at ambient temperature, utilizing the large volume bench-top tube method. TABLE 3. SCD INHIBITORY ACTIVITY FOR SELECTED COMPOUNDS.

| activity at 10 µM [%] | % Activity 10 µM | Compound |
| --- | --- | --- |
| 1.2 | – | CCCCCNC(=O)c1ccc(N2CCN(C(=O)c3ccc(Cl)cc3Cl)CC2)nc1 [6-[4-(2,4-Dichloro-benzoyl)-piperazin-1-yl]-N-pentyl-nicotinamide] |
| 1.3 | – | CC(C)CCNC(=O)c1ccc(N2CCN(C(=O)CCC3CCCCC3)CC2)nc1 [6-[4-(3-Cyclohexyl-propionyl)-piperazin-1-yl]-N-(3-methylbutyl)-nicotinamide] |
| 1.8 | – | CCSCCNC(=O)c1ccc(N2CCN(C(=O)Cc3ccc(C)cc3)CC2)nc1 [N-(2-Ethylsulfanyl-ethyl)-6-[4-(2-p-tolylacetyl)-piperazin-1-yl]-nicotinamide] |
| 0.7 | – | CCCCCNC(=O)c1ccc(N2CCN(C(=O)Cc3ccc4ccccc4c3)CC2)nc1 [6-[4-(2-Naphthalen-2-yl-acetyl)-piperazin-1-yl]-N-pentylnicotinamide] |
| 1.8 | – | CC(C)CC(C)NC(=O)c1ccc(N2CCN(C(=O)c3ccccc3C(F)(F)F)CC2)nc1 (centres unmarked) [N-(1,3-Dimethylbutyl)-6-[4-(2-trifluoromethyl-benzoyl)-piperazin-1-yl]-nicotinamide] |
| 1.1 | – | COc1ccc(Br)c(C(=O)N2CCN(c3ccc(C(=O)NCCc4ccccc4)cn3)CC2)c1 [6-[4-(2-Bromo-5-methoxy-benzoyl)-piperazin-1-yl]-N-phenethylnicotinamide] |
| 1.4 | – | CCSCCNC(=O)c1ccc(N2CCN(C(=O)CCC3CCCCC3)CC2)nc1 [6-[4-(3-Cyclohexyl-propionyl)-piperazin-1-yl]-N-(2-ethylsulfanyl-ethyl)-nicotinamide] |
| 2.7 | – | CC(CCc1ccccc1)NC(=O)c1ccc(N2CCN(C(=O)c3ccc(Cl)cc3Cl)CC2)nc1 (centres unmarked) [6-[4-(2,4-Dichloro-benzoyl)-piperazin-1-yl]-N-(1-methyl-3-phenyl-propyl)-nicotinamide] |
| 3.2 | – | Cc1ccccc1CC(=O)N1CCN(c2ccc(C(=O)NCCC(C)C)cn2)CC1 [N-(3-Methyl-butyl)-6-[4-(2-o-tolyl-acetyl)-piperazin-1-yl]-nicotinamide] |
| – | 3.9% and 1.3% | O=C(NCCCc1ccccc1)c1ccc(N2CCN(C(=O)c3ccccc3C(F)(F)F)CC2)nc1 [N-(3-Phenyl-propyl)-6-[4-(2-trifluoromethyl-benzoyl)-piperazin-1-yl]-nicotinamide] |
| 2.1 | – | CCCC(C)NC(=O)c1ccc(N2CCN(C(=O)CCC3CCCCC3)CC2)nc1 (centres unmarked) [6-[4-(3-Cyclohexyl-propionyl)-piperazin-1-yl]-N-(1-methylbutyl)-nicotinamide] |
| 1 | – | CCOCCCNC(=O)c1ccc(N2CCN(C(=O)c3ccccc3Br)CC2)nc1 [6-[4-(2-Bromo-benzoyl)-piperazin-1-yl]-N-(3-ethoxy-propyl)-nicotinamide] |
| 3.6 | – | CCC(C(=O)N1CCN(c2ccc(C(=O)NCCCc3ccccc3)cn2)CC1)c1ccccc1 (centres unmarked) [6-[4-(2-Phenyl-butyryl)-piperazin-1-yl]-N-(3-phenyl-propyl)-nicotinamide] |
| 1.2 | – | COCCCNC(=O)c1ccc(N2CCN(C(=O)c3ccccc3Br)CC2)nc1 [6-[4-(2-Bromo-benzoyl)-piperazin-1-yl]-N-(3-methoxy-propyl)-nicotinamide] |
| 1.7 | – | CCC(CC)C(=O)N1CCN(c2ccc(C(=O)NCCC(C)C)cn2)CC1 [6-[4-(2-Ethylbutyryl)-piperazin-1-yl]-N-(3-methylbutyl)-nicotinamide] |
| 3.4 | – | Cc1ccsc1C(=O)N1CCN(c2ccc(C(=O)NC(C)CCc3ccccc3)cn2)CC1 (centres unmarked) [N-(1-Methyl-3-phenyl-propyl)-6-[4-(3-methyl-thiophene-2-carbonyl)-piperazin-1-yl]-nicotinamide] |
| 2 | – | CCCCNC(=O)c1ccc(N2CCN(C(=O)C(CC)CC)CC2)nc1 [N-Butyl-6-[4-(2-ethylbutyryl)-piperazin-1-yl]-nicotinamide] |
| 1.4 | – | CCSCCNC(=O)c1ccc(N2CCN(C(=O)c3cc(OC)ccc3Br)CC2)nc1 [6-[4-(2-Bromo-5-methoxy-benzoyl)-piperazin-1-yl]-N-(2-ethylsulfanylethyl)-nicotinamide] |

| Compound | activity at 10 µM [%] | % Activity 10 µM |
| --- | --- | --- |
| CCCCOCCCNC(=O)c1ccc(N2CCN(C(=O)c3ccccc3Br)CC2)nc1 [6-[4-(2-Bromo-benzoyl)-piperazin-1-yl]-N-(3-butoxy-propyl)-nicotinamide] | 0.8 | – |
| CCCCOCCCNC(=O)c1ccc(N2CCN(C(=O)c3ccc(C)cc3C)CC2)nc1 [N-(3-Butoxy-propyl)-6-[4-(2,4-dimethylbenzoyl)-piperazin-1-yl]-nicotinamide] | 0.7 | – |
